Laboratory results as given in patent publication US7759337B2, “Phthalazine compounds and methods of use” (Amgen Inc., priority 2005, dated 2010).

Test system: production of TNF by monocytes activated with bacterial lipopolysaccharide (LPS)
Experiment: Lipopolysaccharide-activated monocyte TNF production assay
Assay type: cell-based
Conditions: Homo sapiens; whole blood monocyte assay (LPS induced TNF release)
Outline: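 Adherent human PBMC-derived monocytes preincubated 60 min with nine two-fold compound dilutions, then stimulated with E. coli K532 LPS (30 ng/mL in the added medium) for 4 h at 37 °C. Supernatant TNF measured by sandwich ELISA; IC50 is the compound concentration halving TNF production, from second-order polynomial fits.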

Row | SMILES | IC50 [µM]
1 | CNc1noc2c(-c3ccc4c(N5CCOC[C@@H]5C)nncc4c3)c(C)ccc12 [Example 397, N,6-dimethyl-7-(1-((S)-3-methylmorpholino)phthalazin-6-yl)benzo[d]isoxazol-3-amine] | ≤ 5
2 | Cc1ccccc1-c1ccc2c(N3CCOCC3c3ccc(F)cc3)nncc2c1 (centres unmarked) [Example 398, 1-[3-(4-fluorophenyl)morpholin-4-yl]-6-(2-methylphenyl)phthalazine] | ≤ 5
3 | CNc1noc2c(-c3ccc4c(N[C@@H](C)COC)nncc4c3)c(C)ccc12 [Example 399, N-[(1S)-2-methoxy-1-methylethyl]-6-[6-methyl-3-(methylamino)-1,2-benzisoxazol-7-yl]phthalazin-1-amine] | ≤ 5
4 | C[C@H]1COCCN1c1nncc2cc(-c3c(Cl)ccc4c(NCC(F)(F)F)noc34)ccc12 [Example 400, 6-chloro-7-{1-[(3S)-3-methylmorpholin-4-yl]phthalazin-6-yl}-N-(2,2,2-trifluoroethyl)-1,2-benzisoxazol-3-amine] | ≤ 5
5 | C[C@H]1COCCN1c1nncc2cc(-c3c(Cl)ccc4c(NC5CC5)noc34)ccc12 [Example 401, 6-chloro-N-cyclopropyl-7-{1-[(3S)-3-methylmorpholin-4-yl]phthalazin-6-yl}-1,2-benzisoxazol-3-amine] | ≤ 5
6 | CC(C)Nc1noc2c(-c3ccc4c(N5CCOC[C@@H]5C)nncc4c3)c(Cl)ccc12 [Example 402, 6-chloro-N-isopropyl-7-{1-[(3S)-3-methylmorpholin-4-yl]phthalazin-6-yl}-1,2-benzisoxazol-3-amine] | ≤ 5
7 | CC(=O)Nc1noc2c(-c3ccc4c(N5CCOC[C@@H]5C)nncc4c3)c(C)ccc12 [Example 403, N-(6-methyl-7-{1-[(3S)-3-methylmorpholin-4-yl]phthalazin-6-yl}-1,2-benzisoxazol-3-yl)acetamide] | ≤ 5
8 | Cc1ccc(C(=O)NC(C)C)cc1-c1ccc2c(NC(C)C)nncc2c1 [Example 404, N-isopropyl-3-[1-(isopropylamino)phthalazin-6-yl]-4-methylbenzamide] | ≤ 5
9 | Cc1ccc(C(=O)NC(C)C)cc1-c1ccc2c(N3CCOCC3)nncc2c1 [Example 405, N-isopropyl-4-methyl-3-(1-morpholin-4-ylphthalazin-6-yl)benzamide] | ≤ 5
10 | Cc1ccc(C(N)=O)cc1-c1ccc2c(Oc3ccccc3)nncc2c1 [Example 406, 4-methyl-3-(1-phenoxyphthalazin-6-yl)benzamide] | ≤ 5
11 | Cc1ccc(C(N)=O)cc1-c1ccc2c(NCCO)nncc2c1 [Example 407, 3-{1-[(2-hydroxyethyl)amino]phthalazin-6-yl}-4-methylbenzamide] | ≤ 5
